Test system: streptococcal cell wall-induced arthritis
Assay: Rat streptococcal cell wall (SCW)-induced arthritis: ankle swelling and von Frey mechanical threshold
Assay type: in vivo
Settings: oral bid, P2X7 antagonist 1 30 mg/kg
Description: Assessment of Anti-Inflammatory Activity of the COX-2 Inhibitor, Celecoxib/P2X7 Antagonist Combinations in Rat Streptococcal Cell Wall-Induced Arthritis.^1 1. Experimental procedure based on that described by Carlson R P, Jacobsen P B, ‘Comparison of adjuvant and streptococcal cell wall-induced arthritis in the rat’in Morgan D W, Marshall L A, editors; In Vivo Models of Inflammation. Basel: Birkhauser Verlag; 1999.
Streptococcal cell wall (SCW)-induced arthritis was induced in the left ankle of female Lewis rats. Animals were sensitised by intra-articular injection of 5 μg (in 20 μL) SCW (Lee Laboratories) into the left ankle. Ankle swelling was assessed 3 days after injection and non-responders (animals with no apparent ankle swelling) were rejected. Responding animals were randomly allocated to the test groups.
Arthritis was induced 21 days after sensitisation by intravenous (iv) injection of SCW (100 μg in 500 μL saline). Animals were monitored and assessed on a daily basis through to term-ination 6 days after induction. The rats were housed on sawdust and provided with food and water ad libitum.
In this example the P2X7 antagonist 1 was orally dosed at 30 mg/kg (4 mL/kg, bid). The compound was dosed as a suspension in 1% (w/v) methylcellulose in deionised water and was freshly prepared on a daily basis. Dosing commenced 1 day prior to induction of arthriis and continued on a daily basis through to termination on day 6 post-induction. Celecoxib (3 mg/kg) was dosed orally under the same regime as for P2X7 antagonist 1, administration of celecoxib occurring immediately after administration of P2X7 antagonist 1.
Ankle diameters were measured with vernier callipers on a daily basis from day −1. Mechanical thresholds were assessed using von Frey filaments on days −1, 1, 3 and 5. The filaments were applied in increasing weights to the ankle region on the footpad of both feet. The first filament to induce a withdrawal response was considered to be the threshold.
Effects on ankle swelling and mechanical threshold were calculated on an area under the curve (AUC) basis, as the sum of the differences from individual day −1 values. The size. and direction of the interaction was calculated and data analysis performed by ANOVA followed by Dunnett's test on the AUC data (SAS version 8.01).
The anti-inflammatory activity of the COX-2 inhibitor, rofecoxib in combination with a P2X7 antagonist was assesesd using the protocol described in Example 3A. The P2X7 antagonist 1 was dosed orally at 30 mg/kg (4 mL/kg, bid) as a suspension in 1% (w/v) methylcellulose in deionised water, together with rofecoxib (Merck Sharp & Dohme Limited) (1 mg/kg) in a single formulation. Dosing commenced 1 day prior to induction of arthritis and continued on a daily baisis through to termination on day 6 post-induction.
The anti-inflammatory activity of the COX-2 inhibitor, valdecoxib in combination with a P2X7 antagonist was assesesd using the protocol described in Example 3A. The P2X7 antagonist 1 was orally dosed at 30 mg/kg (4 mL/kg, bid) as a suspension in 1% (w/v) methylcellulose in deionised water, together with valdecoxib (Pfizer) (1 mg/kg) in a single formulation. Dosing commenced 1 day prior to induction of arthritis and continued on a daily baisis through to termination on day 6 post-induction.

[1] = Example 3A, female Lewis rats, day -1 to day 6 post-induction, celecoxib 3 mg/kg, given one immediately after the other
[2] = Example 3B, day -1 to day 6, rofecoxib 1 mg/kg, single formulation
[3] = Example 3C, day -1 to day 6, valdecoxib 1 mg/kg, single formulation

SMILES	% reduction of AUC (compared to arthritic vehicle control) Ankle swelling [1]	% reduction of AUC (compared to arthritic vehicle control) Von Frey threshold [1]	% reduction of AUC (compared to arthritic vehicle control) Ankle swelling [2]	% reduction of AUC (compared to arthritic vehicle control) Von Frey threshold [2]	% reduction of AUC (compared to arthritic vehicle control) Ankle swelling [3]	% reduction of AUC (compared to arthritic vehicle control) Von Frey threshold [3]
Cc1ccc(C(=O)N2CC3CNCC(C2)O3)cc1NC(=O)CC12CC3CC(CC(C3)C1)C2.Cl [P2X7 antagonist 1, N-[2-Methyl-5-(9-oxa-3,7-diazabicyclo[3.3.1]non-3-ylcarbonyl)phenyl]-tricyclo[3.3.1.1^3,7]decane-1-acetamide, hydrochloride]	28.5 ± 13.5%	21.1 ± 10.9%	2.6 ± 11.6%	26.5 ± 11.4%	2.6 ± 11.6%	26.5 ± 11.4%
Cc1onc(-c2ccccc2)c1-c1ccc(S(N)(=O)=O)cc1 [Valdecoxib, 4-(5-methyl-3-phenyl-4-isoxazolyl)benzenesulfonamide]					52.8 ± 3.1 %	37.8 ± 8.6 %
CS(=O)(=O)c1ccc(C2=C(c3ccccc3)C(=O)OC2)cc1 [Rofecoxib, 4-[4′-(methylsulfonyl)phenyl]-3-phenyl-(5H)-furanone]			50.6 ± 4.7 %	29.8 ± 7.8 %		
Cc1ccc(-c2cc(C(F)(F)F)nn2-c2ccc(S(N)(=O)=O)cc2)cc1 [Celecoxib, 4-[5-(4-methylphenyl)-3-(trifluoromethyl)-1H-pyrazol-1-yl]benzenesulfonamide]	63.0 ± 3.9 %	43.2 ± 15.9 %				
